Where no end group is shown, it is not given here. [ ]: non-standard residue; d: D form. pGlu = O=C1CC[C@@H](C(=O)O)N1
System: human bone marrow stromal cell line, C6
Assay: Induction of colony stimulating activity by stromal cells; CSA of supernatant read in soft agar assay (CFU-C)
Assay type: cell-based
Conditions: 5% C6 supernatant, Lewis rat bone marrow cells
Method: Induction of Colony Stimulating Activity by Stromal Cells
The human bone marrow stromal cell line, C6, is grown to confluency in plastic tissue culture dishes in RPMI-1640 medium and 5% FBS. On the day prior to the experiment this medium is changed to DMEM without added serum. To these cultures, the compounds are added for one hour, then washed from the cultures. The medium is replaced with fresh DMEM and the cells are incubated for 24 hours at 37° C., 5% CO2. After 24 hours the C6 cell culture supernatant is collected, sterile filtered, and frozen until it can be assayed for the presence of hematopoietic colony stimulating activity (CSA) as set forth below.
Bone marrow cells are obtained from Lewis rats. They are adjusted to 10^6 cells/ml in DMEM without serum. A single layer agar system utilizing the following is used: DMEM enriched with nutrients (NaHCO3, pyruvate, amino acids, vitamins, and HEPES buffer); 0.3% Bacto agar, and 20% Lewis rat serum. To this are added dilutions of C6 cell line supernatant (10-2.5%) from above along with rat bone marrow cells (final concentration=10^5 cells/ml). The agar plates are incubated at 37° C., 5% CO2 for 7-8 days. Colonies of proliferating bone marrow cells (CFU-C) are counted utilizing a microscope. The number of agar colonies counted is proportional to the amount of CSA present within the C6 bone marrow stromal cell line supernatant.

(pGlu-Glu-Asp)2 -Sub-(Lys)2 ([pGlu]ED[Sub]K; not fully specified; printed as (pGlu-Glu-Asp)2 -Sub-(Lys)2; also: dimer via suberoyl-lysine linker) [Example 2]
Hematopoietic Colony Stimulating Activity Using 5% Supernatant, Percent of Control (dose 0.01 ng/ml): 97% of Control | Hematopoietic Colony Stimulating Activity Using 5% Supernatant, Percent of Control (dose 0.1 ng/ml): 154% of Control | Hematopoietic Colony Stimulating Activity Using 5% Supernatant, Percent of Control (dose 1 ng/ml): 188% of Control | Hematopoietic Colony Stimulating Activity Using 5% Supernatant, Percent of Control (dose 10 ng/ml): 207% of Control | Hematopoietic Colony Stimulating Activity Using 5% Supernatant, Percent of Control (dose 100 ng/ml): 241% of Control | Hematopoietic Colony Stimulating Activity Using 5% Supernatant, Percent of Control (dose 1000 ng/ml): 192% of Control

— patent US5776900A, “Hemoregulatory peptides” (SmithKline Beecham Corporation, priority 1995, dated 1998)
